The structures appear in SMILES notation. Where a name gives a salt, the structure may show the parent alone. Read-outs that look alike come from different tables or passages of the source.

What all share (test): Bead competition binding assay, immobilized compound A, K-562, HL-60 and Jurkat nuclear lysates
Conditions in all cases: 100 µM free compound A, read-out: Fold change versus DMSO control

One assay concerns the target T1, FTO (Homo sapiens, UniProt Q9C0B1).
T1 construct: endogenous in cells
The source says:
(§1) K562 cells were also purchased from DSMZ (Braunschweig, Germany).
(§2) Table 5: Peptide elution off the LC system

The target of a further assay is T2, EGLN1 (Homo sapiens, UniProt Q9GZT9).
T2 construct: endogenous in cells
T2 sequence (Q9GZT9 whole entry): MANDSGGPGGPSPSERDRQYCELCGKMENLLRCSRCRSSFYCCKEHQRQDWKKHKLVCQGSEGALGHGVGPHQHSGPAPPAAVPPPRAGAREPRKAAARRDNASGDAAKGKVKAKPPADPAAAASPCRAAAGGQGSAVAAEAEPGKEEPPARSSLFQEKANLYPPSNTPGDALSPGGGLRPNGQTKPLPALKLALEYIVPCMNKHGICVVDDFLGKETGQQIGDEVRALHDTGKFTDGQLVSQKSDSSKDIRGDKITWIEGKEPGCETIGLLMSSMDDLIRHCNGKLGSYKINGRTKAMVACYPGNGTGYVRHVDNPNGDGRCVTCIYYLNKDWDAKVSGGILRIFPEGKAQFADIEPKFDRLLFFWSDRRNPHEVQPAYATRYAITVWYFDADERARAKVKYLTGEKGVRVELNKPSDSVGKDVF
Excerpt: as §1, §2

The target in a further assay is T3, PLOD1 (Homo sapiens, UniProt Q02809).
T3 construct: capturing and identification of dioxygenases from nuclear protein extracts; endogenous in cells
T3 sequence (Q02809 19-727): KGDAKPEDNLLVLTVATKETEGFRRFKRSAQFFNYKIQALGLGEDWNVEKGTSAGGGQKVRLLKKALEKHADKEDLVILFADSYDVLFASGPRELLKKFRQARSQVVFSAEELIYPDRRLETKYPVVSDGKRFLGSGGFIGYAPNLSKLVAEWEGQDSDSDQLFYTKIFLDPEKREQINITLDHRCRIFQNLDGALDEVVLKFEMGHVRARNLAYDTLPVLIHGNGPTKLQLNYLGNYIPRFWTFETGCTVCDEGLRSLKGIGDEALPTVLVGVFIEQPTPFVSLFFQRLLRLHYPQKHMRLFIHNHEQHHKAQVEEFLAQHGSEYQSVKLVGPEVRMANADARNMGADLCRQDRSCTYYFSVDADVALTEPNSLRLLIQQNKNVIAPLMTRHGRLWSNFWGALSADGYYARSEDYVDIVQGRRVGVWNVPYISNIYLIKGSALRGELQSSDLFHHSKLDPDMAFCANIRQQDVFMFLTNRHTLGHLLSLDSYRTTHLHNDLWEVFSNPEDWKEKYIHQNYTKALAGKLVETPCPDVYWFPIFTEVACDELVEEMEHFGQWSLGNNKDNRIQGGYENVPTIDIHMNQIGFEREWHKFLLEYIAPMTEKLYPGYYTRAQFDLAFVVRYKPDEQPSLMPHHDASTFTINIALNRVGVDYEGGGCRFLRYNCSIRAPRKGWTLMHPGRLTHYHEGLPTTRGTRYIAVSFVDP
Excerpt: as §1, §2

The next assay concerns the target T4, LEPREL2 (Homo sapiens, UniProt Q8IVL6).
T4 construct: capturing and identification of dioxygenases from nuclear protein extracts; endogenous in cells
T4 sequence (Q8IVL6 21-736): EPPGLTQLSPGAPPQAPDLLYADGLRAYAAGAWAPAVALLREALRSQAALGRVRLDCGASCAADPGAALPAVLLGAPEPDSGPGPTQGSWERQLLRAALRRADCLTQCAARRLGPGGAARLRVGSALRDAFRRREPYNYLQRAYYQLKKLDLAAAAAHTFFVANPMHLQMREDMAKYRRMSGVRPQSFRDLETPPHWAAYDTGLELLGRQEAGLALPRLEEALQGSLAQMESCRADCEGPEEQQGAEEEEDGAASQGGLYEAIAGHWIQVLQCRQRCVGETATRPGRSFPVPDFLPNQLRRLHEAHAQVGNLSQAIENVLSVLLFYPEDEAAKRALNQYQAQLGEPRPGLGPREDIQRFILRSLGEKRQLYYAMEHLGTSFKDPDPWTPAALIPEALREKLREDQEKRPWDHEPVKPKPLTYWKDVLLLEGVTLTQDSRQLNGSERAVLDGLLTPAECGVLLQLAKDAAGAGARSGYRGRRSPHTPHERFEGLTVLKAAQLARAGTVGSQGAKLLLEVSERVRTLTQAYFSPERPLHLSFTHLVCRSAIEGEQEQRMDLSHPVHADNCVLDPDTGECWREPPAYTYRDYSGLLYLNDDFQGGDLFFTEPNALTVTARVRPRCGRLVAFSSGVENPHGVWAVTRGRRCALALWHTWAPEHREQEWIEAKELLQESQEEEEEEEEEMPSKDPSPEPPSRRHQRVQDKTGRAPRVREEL
Excerpt: as §1, §2

T1 sequence (Q9C0B1 whole entry): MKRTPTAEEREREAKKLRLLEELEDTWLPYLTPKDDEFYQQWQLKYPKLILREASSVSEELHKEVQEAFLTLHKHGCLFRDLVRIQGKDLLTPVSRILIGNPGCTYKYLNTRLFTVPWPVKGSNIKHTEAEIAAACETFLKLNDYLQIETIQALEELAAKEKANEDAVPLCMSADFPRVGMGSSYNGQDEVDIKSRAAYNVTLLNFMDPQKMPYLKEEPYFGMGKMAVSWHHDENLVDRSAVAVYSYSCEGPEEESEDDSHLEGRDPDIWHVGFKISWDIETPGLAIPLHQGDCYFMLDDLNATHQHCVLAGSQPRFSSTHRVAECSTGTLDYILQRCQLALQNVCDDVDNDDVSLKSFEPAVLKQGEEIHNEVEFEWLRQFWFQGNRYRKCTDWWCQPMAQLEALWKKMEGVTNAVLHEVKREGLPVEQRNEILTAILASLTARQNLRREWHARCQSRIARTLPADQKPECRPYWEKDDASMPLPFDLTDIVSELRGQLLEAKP

As to `O=C(O)CNC(=O)C1C(=O)OC2(CCNCC2)OC1=O` [compound A, 2-(2,4-dioxo-1,5-dioxa-9-azaspiro[5.5]undecane-3-carboxamido)acetic acid hydrochloride], the remaining binding at 100 µM at FTO (Jurkat nuclear lysate) is 8%; at FTO (K-562 nuclear lysate) it was 19%; at EGLN1 (HL-60 nuclear lysate) it was 24%; at EGLN1 (Jurkat nuclear lysate), 13%; at PLOD1 (Jurkat nuclear lysate), 91%; on PLOD1 (K-562 nuclear lysate), 35%. In addition, the values for the remaining binding at 100 µM on LEPREL2 (Jurkat nuclear lysate) and on LEPREL2 (K-562 nuclear lysate) were 9% and 25%, respectively.

The values are drawn from patent EP2505659A1, “Methods for the identification of dioxygenase interacting molecules and for the purification of dioxygenase proteins” (CELLZOME AG, priority 2011, dated 2012).
